Experimental data reported in US20260374792A1, “PHENYL-FREE BISCATIONIC QUATERNARY PHOSPHONIUM COMPOUNDS AS ANTIMICROBIAL AGENTS” (priority 2022, published 2026).
Read-outs that look alike come from different tables or passages of the source.

Columns and labels:
E. faecalis (OG1RF) = experiment: MIC against E. faecalis; type: cell-based; details: Enterococcus faecalis, 72 h
Experimental: (§1) The term “minimum inhibitory concentration (MIC)” means the lowest concentration of an antimicrobial agent that will inhibit the visible growth of a microorganism after overnight incubation. MIC values against bacteria, for example, the Gram-positive Staphylococcus aureus and Enterococcus faecalis and the Gram-negative Escherichia coli and Pseudomonas aeruginosa were determined by standard methods. See also P. A. Wayne, Methods for Dilution Antimicrobial Tests for Bacteria that Grow Aerobically; Approved Standard, Ninth Edition, 2012, CLSI Document M07-A9, Vol. 32 No. 2.
(§2) Biological testing procedures were adapted from prior work by Melander and coworkers. For all biological assays, laboratory strains of methicillin-susceptible Staphylococcus aureus MSSA (SH1000), Staphylococcus aureus CA-MRSA (USA300-0114), Staphylococcus aureus HA-MRSA (ATCC 33591), Escherichia coli (MC4100), Enterococcus faecalis (OG1RF), Acinetobacter baumannii (ATCC 17978), were grown with shaking at 37 °C overnight from freezer stocks in 5 mL of the indicated media: SH1000, OG1RF, MC4100, USA300-0114, and ATCC 17978 were grown in BDTM Mueller-Hinton broth (MHB), whereas ATCC 33591 was grown in BDTM tryptic soy broth (TSB). The inoculum were then streaked onto Mueller-Hinton agar (MHA) plates and grown overnight at 37 °C. From the plates, single colonies were selected, diluted into 50 mL of fresh media and grown overnight at 37 °C with shaking for use in the MIC assays. Optical density (OD) measurements were obtained using a SpectraMax iD3 plate reader (Molecular Devices, United States).
(§3) Compounds were serially diluted two-fold from stock solutions (1.0 mM) to yield twelve 100 μL test concentrations, wherein the starting concentration of dimethyl sulfoxide (DMSO) was 2.5%. Overnight S. aureus, E. faecalis, E. coli, A. baumannii, USA300-0114 (CA-MRSA), and ATCC 33591 (HA-MRSA) cultures were diluted to ca. 10^6 CFU/mL in MHB or TSB and regrown to mid-exponential phase, as determined by optical density recorded at 600 nm (OD600). All cultures were then diluted again to ca. 10^6 CFU/mL and 100 μL were inoculated into each well of a U-bottom 96-well plate (Corning, 351177) containing 100 μL of compound solution. Plates were incubated statically at 37 °C for 72 hours upon which wells were evaluated visually for bacterial growth. The MIC was determined as the lowest concentration of compound resulting in no bacterial growth visible to the naked eye, based on the highest value in three independent experiments. Aqueous DMSO controls were conducted as appropriate for each compound.
(§4) The prepared library of biscationic amphiphilic compounds was assessed for performance as antibacterial disinfectants by determining the minimum inhibitory concentration (MIC) for each against a panel of bacteria. The bacteria selected for the study were chosen to evaluate the broad spectrum antimicrobial performance of the QPCs, and therefore, included both Gram-positive and Gram-negative bacterial strains, including those with known antimicrobial resistance mechanisms. These bacteria include the Gram-positive strains of methicillin-susceptible Staphylococcus aureus [MSSA; SH1000], community-acquired methicillin-resistant Staphylococcus aureus [CA-MRSA; USA 300-0114], hospital-acquired methicillin-resistant Staphylococcus aureus [HA-MRSA; ATCC 33591] and the […], Escherichia coli [MC4100], Acinetobacter baumannii [ATCC 17498] and Pseudomonas aeruginosa [PAO1].

HA-MRSA (ATCC 33591) = experiment: MIC against hospital-acquired methicillin-resistant S. aureus (HA-MRSA); type: cell-based; details: Staphylococcus aureus, 72 h
Experimental: as §1, §2, §3, §4

CA-MRSA (USA300-0114) = experiment: MIC against community-acquired methicillin-resistant S. aureus (CA-MRSA); type: cell-based; details: Staphylococcus aureus, 72 h
Experimental: as §1, §2, §3, §4

E. coli (MC4100) = experiment: MIC against E. coli; type: cell-based; details: Escherichia coli, 72 hours, 37 °C
Experimental: as §1, §2, §3, §4

P. aeruginosa (PAO1) = experiment: MIC against P. aeruginosa; type: cell-based; details: Pseudomonas aeruginosa
Experimental: as §1, §2, §3, §4

MSSA (SH1000) = experiment: MIC against methicillin-susceptible S. aureus (MSSA); type: cell-based; details: Staphylococcus aureus
Experimental: as §1, §2, §3, §4

A. baumannii = experiment: MIC against A. baumannii; type: cell-based; details: Acinetobacter baumannii, 72 h
Experimental: as §1, §2, §3, §4

red blood cells = experiment: Red Blood Cell (RBC) Lysis Assay (lysis20); type: cell-based, sheep; details: concentration inducing 20% RBC lysis; sheep blood, 1 hour, 37 °C
Experimental: RBC lysis assays were performed on mechanically defibrinated sheep blood (Hemostat Labs: DSB030). An aliquot of 1.5 mL blood was placed into a microcentrifuge tube and centrifuged at 3,800 rpm for ten minutes. The supernatant was removed, and the cells were resuspended with 1 mL of phosphate-buffered saline (PBS). The suspension was centrifuged as described above, the supernatant was removed, and cells were resuspended 4 additional times in 1 mL PBS. The final cell suspension was diluted twentyfold with PBS. Compounds were serially diluted with PBS two-fold from stock solutions (1.0 mM) to yield 100 μL of twelve test concentrations on a flat-bottom 96-well plate (Corning, 351172), wherein the starting concentration of DMSO was 2.5%. To each of the wells, 100 μL of the twentyfold suspension dilution was then inoculated. TritonX (1% by volume) served as a positive control (100% lysis marker) and sterile PBS served as a negative control (0% lysis marker). Samples were then placed in an incubator at 37 °C and shaken at 200 rpm. After 1 hour, the samples were centrifuged at 3,800 rpm for ten minutes. The absorbance of the supernatant was measured with a UV spectrometer at a 540 nm wavelength. The concentration inducing 20% RBC lysis was then calculated for each compound based upon the absorbances of the TritonX and PBS controls. Aqueous DMSO controls were conducted as appropriate for each compound.
The potential cytotoxicity of the compounds was also considered with the evaluation of hemolysis (lysis20) assays with 20% lysis of red blood cells serving as an indicator of potentially toxic compounds. Finally, the bioactivity of these compounds were benchmarked against a commercial benzalkonium chloride source (BAC; 70% benzyldimethyldodecylammonium chloride, and 30% benzyldimethyltetradecylammonium chloride) as well as some previously reported disinfectant compounds from the inventors' groups; included were bisQPC ^PhP6P-10,10 as well as ^PhP2P-10,10 and 12(2)12. A detailed description of the experimental procedures used to evaluate bioactivity and hemolysis assays are described above.

[1] = P. aeruginosa (PAO1), 72 hours, 37 °C, read-out: MIC
[2] = MSSA (SH1000), 72 hours, 37 °C, read-out: MIC

SMILES	MIC (E. faecalis (OG1RF)) [µM]	MIC (HA-MRSA (ATCC 33591)) [µM]	MIC (CA-MRSA (USA300-0114)) [µM]	MIC (E. coli (MC4100)) [µM]	MIC (P. aeruginosa (PAO1); [1]) [µM]	MIC (MSSA (SH1000); [2]) [µM]	MIC (A. baumannii) [µM]	Lysis20 (red blood cells) [µM]	MIC (P. aeruginosa (PAO1); PAO1, 72 h) [µM]	MIC (MSSA (SH1000); MSSA, 72 h) [µM]
CCCCCCCCCC[P+](C)(C)CC[P+](C)(C)CCCCCCCCCC [^MeP2P-10,10]	16	2	2	16	32	2	63	63	–	–
CCCCCCCC[P+](CC[P+](CCCCCCCC)(C1CCCCC1)C1CCCCC1)(C1CCCCC1)C1CCCCC1 [^CyP2P-8,8]	63	8	2	63	250	2	125	125	–	–
CCCCCCCCCCCCCC[P+](CC)(CC)CC[P+](CC)(CC)CCCCCCCCCCCCCC [^EtP2P-14,14]	63	4	4	8	63	8	32	8	–	–
CCCCCCCCCCC[P+](C)(C)CC[P+](C)(C)CCCCCCCCCCC [^MeP2P-11,11]	2	1	1	4	8	2	16	16	–	–
CCCCCCCC[P+](C)(C)CC[P+](C)(C)CCCCCCCC [^MeP2P-8,8]	> 250	250	125	> 250	> 250	125	> 250	250	–	–
CCCCCCCCC[P+](C)(C)CC[P+](C)(C)CCCCCCCCC [^MeP2P-9,9]	125	16	8	125	> 250	8	250	250	–	–
CCCCCCCCCCCCCC[P+](C)(C)CC[P+](C)(C)CCCCCCCCCCC [^MeP2P-14,14]	32	8	4	32	63	8	125	8	–	–
CCCCCCCCCC[P+](CC[P+](CCCCCCCCCC)(c1ccccc1)c1ccccc1)(c1ccccc1)c1ccccc1 [^PhP2P-10,10, reference compound]	8	1	0.5	4	8	1	2	16	–	–
CCCCCCCCCCCCC[P+](CC[P+](CCCCCCCCCCCCC)(C1CCCCC1)C1CCCCC1)(C1CCCCC1)C1CCCCC1 [^CyP2P-13,13]	32	1	2	32	63	2	16	8	–	–
CCCCCCCCCCCCCCCC[P+](CC)(CC)CC[P+](CC)(CC)CCCCCCCCCCCCCCCC [^EtP2P-16,16]	63	32	16	125	–	–	260	16	125	16
CCCCCCCCCCCC[P+](CC[P+](CCCCCCCCCCCC)(C1CCCCC1)C1CCCCC1)(C1CCCCC1)C1CCCCC1 [^CyP2P-12,12]	16	2	2	8	16	2	4	16	–	–
CCCCCCCCCCCCCC[P+](CC[P+](CCCCCCCCCCCCCC)(C1CCCCC1)C1CCCCC1)(C1CCCCC1)C1CCCCC1 [^CyP2P-14,14]	32	2	4	63	63	4	63	8	–	–
CCCCCCCC[P+](CC)(CC)CC[P+](CC)(CC)CCCCCCCC [^EtP2P-8,8]	> 250	250	125	> 250	> 250	63	> 250	250	–	–
CCCCCCCCCCCCCCCC[P+](C)(C)CC[P+](C)(C)CCCCCCCCCCC [^MeP2P-16,16]	250	63	32	250	> 250	32	> 250	125	–	–
CCCCCCCCCCCCCCCC[P+](CC[P+](CCCCCCCCCCCCCCCC)(C1CCCCC1)C1CCCCC1)(C1CCCCC1)C1CCCCC1 [^CyP2P-16,16]	125	2	2	125	63	8	125	32	–	–
CCCCCCCCCC[P+](CC)(CC)CC[P+](CC)(CC)CCCCCCCCCC [^EtP2P-10,10]	16	8	1	16	32	2	32	63	–	–
CCCCCCCCCCC[P+](CC)(CC)CC[P+](CC)(CC)CCCCCCCCCCC [^EtP2P-11,11]	4	2	1	4	16	1	8	16	–	–
CCCCCCCCCC[P+](CC[P+](CCCCCCCCCC)(C1CCCCC1)C1CCCCC1)(C1CCCCC1)C1CCCCC1 [^CyP2P-10,10]	8	1	1	8	8	1	8	16	–	–
